Measurements reported in patent publication US11584744B2 (UNIVERSITY OF WASHINGTON, priority 2017, dated 2023).
In brackets after ≈: the same amount, converted by molar mass. Several values for one entry are separate records, joined by “and”; a condition that tells them apart may be missing. Equal entries are not always repeated. Where two headings read alike, the source gives them in different places.

Columns and labels:
[1] = tested on: S. aureus MRSA (ATCC 33591); assay: MIC susceptibility testing; format: cell-based, Staphylococcus aureus; conditions: MRSA ATCC33591; for MIC: Staphylococcus aureus, read-out: (G) MRSA (ATCC33591) MIC
Summary of the method: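 CLSI broth microdilution in triplicate, 5×10^5 CFU/mL final, ≤0.5% DMSO; MHB for S. aureus, CA-MHB for E. coli and E. faecium, CA-MHB plus 3% laked horse blood for S. pyogenes (5% CO2).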

[2] = tested on: S. aureus MSSA (ATCC 29213); assay: MIC susceptibility testing; format: cell-based, Staphylococcus aureus; conditions: S. aureus ATCC 29213; for MIC: Staphylococcus aureus, read-out: (F) S. aureus (ATCC 29213) MIC
MetRS (T. brucei) = biological target: T1, MetRS (T. brucei) (Trypanosoma brucei brucei, UniProt Q38C91); assay: MetRS (T. brucei) enzyme inhibition; format: biochemical
T1 sequence (Q38C91 1-773): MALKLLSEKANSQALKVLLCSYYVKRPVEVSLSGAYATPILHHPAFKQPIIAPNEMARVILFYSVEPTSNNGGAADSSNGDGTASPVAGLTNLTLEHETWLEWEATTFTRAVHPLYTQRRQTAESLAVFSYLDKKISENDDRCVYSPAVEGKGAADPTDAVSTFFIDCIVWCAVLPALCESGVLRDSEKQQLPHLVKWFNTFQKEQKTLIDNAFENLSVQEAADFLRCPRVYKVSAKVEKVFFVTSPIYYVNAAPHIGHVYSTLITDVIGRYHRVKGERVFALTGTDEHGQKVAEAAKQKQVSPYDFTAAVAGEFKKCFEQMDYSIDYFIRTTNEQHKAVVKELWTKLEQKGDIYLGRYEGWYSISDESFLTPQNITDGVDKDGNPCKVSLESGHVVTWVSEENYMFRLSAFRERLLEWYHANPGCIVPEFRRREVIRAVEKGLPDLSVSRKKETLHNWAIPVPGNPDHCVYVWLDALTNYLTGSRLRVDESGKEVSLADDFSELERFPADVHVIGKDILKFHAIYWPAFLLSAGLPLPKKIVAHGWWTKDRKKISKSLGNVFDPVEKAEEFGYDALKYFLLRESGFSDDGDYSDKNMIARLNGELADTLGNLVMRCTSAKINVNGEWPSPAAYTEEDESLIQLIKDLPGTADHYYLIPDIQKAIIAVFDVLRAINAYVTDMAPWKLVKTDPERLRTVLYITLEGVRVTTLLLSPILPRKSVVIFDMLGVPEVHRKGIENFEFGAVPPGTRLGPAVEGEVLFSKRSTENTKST

MetRS (C. parvum) = MetRS (C. parvum) (Cryptosporidium parvum, UniProt Q5CVN0); assay: MetRS (C. parvum) enzyme inhibition; format: biochemical; conditions: read-out: (C) MetRS (C. parvum) IC50
Sequence of MetRS (C. parvum) (Q5CVN0 entry or part of it): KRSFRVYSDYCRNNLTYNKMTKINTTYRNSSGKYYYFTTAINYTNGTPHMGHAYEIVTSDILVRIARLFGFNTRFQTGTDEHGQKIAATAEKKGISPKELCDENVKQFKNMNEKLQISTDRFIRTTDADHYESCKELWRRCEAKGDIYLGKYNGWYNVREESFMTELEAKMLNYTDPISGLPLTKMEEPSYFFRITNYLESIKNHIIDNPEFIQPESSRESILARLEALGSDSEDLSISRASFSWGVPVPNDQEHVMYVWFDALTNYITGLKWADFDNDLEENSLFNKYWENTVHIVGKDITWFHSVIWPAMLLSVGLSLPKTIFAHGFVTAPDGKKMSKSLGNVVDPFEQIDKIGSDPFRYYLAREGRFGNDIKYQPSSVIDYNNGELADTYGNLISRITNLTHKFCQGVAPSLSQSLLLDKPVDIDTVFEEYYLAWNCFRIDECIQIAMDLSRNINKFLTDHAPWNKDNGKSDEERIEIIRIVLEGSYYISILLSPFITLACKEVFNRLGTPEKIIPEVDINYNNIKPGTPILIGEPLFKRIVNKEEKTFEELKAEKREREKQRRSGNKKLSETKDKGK

T. brucei = T. brucei growth inhibition; format: cell-based, Trypanosoma brucei; conditions: read-out: (D) T. brucei EC50
T. cruzi = T. cruzi growth inhibition; format: cell-based, Trypanosoma cruzi; conditions: read-out: (E) T. cruzi EC50
C. parvum = C. parvum growth inhibition; format: cell-based, Cryptosporidium parvum; conditions: read-out: (J) C. parvum EC50
[3] = tested on: E. faecium VRE (ATCC 51559); assay: MIC susceptibility testing; format: cell-based, Enterococcus faecium; conditions: E. faecium ATCC 51559; for MIC: Enterococcus faecium, read-out: (I) E. faecium (ATCC 51559) MIC
Text: Media and culture conditions. Mueller Hinton broth (MHB), cation adjusted Mueller Hinton broth (CA-MHB), and Brain Heart Infusion broth (BHI) were purchased from Becton Dickinson (Franklin Lakes, N.J.). Tryptic soy agar (TSA) plates, TSA with 5% sheep blood plates, and CA-MHB with 3% laked horse blood were purchased from Remel (San Diego, Calif.). MHB was used to assay all Staphylococcus aureus strains. CA-MHB was used for Staphylococcus epidermidis, Enterococcus faecalis, Enterococcus faecium, Escherichia coli, and Pseudomonas aeruginosa. CA-MHB supplemented with 3% laked horse blood was used for Streptococcus pneumoniae and Streptococcus pyogenes. Staphylococcus, Enterococcus, Escherichia, and Pseudomonas strains were cultured at 37° C. with ambient air. Streptococcus strains were cultured in 37° C. with 5% CO2. Separate conditions for radiolabeled precursor uptake assays are described below.
Susceptibility testing: Minimum inhibitory concentration (MIC) determinations were performed in triplicate in 96-well round bottom microtiter plates (Corning, Corning N.Y.) as described by the Clinical and Laboratory Standards Institute (CLSI). Serial two-fold dilutions of compounds were added to plates in 50 μL volumes. An additional 50 μL of media containing bacterial cells (1×10^6 CFUs/mL) was then added to each well. Maximum DMSO concentrations were 0.5%. Plates were incubated at 37° C. for at least 18 h before reading the susceptibility result by optical absorbance (OD600) using a BioTek ELx800. The lowest concentration causing ≥90% growth inhibition compared to the untreated control was recorded as the MIC (and also corresponded to the visual MIC). MICs were measured at least twice and the higher value (if different) was recorded herein.

| SMILES | MIC [1] | MIC [2] | IC50 (MetRS (T. brucei)) | IC50 (MetRS (C. parvum)) | EC50 (T. brucei; Trypanosoma brucei) | EC50 (T. cruzi; Trypanosoma cruzi) | EC50 (C. parvum; Cryptosporidium parvum) | (F) S. aureus (ATCC 29213) MIC [2] | MIC [3] | EC50 (T. brucei) | EC50 (T. cruzi) | EC50 (C. parvum) | (I) E. faecium (ATCC 51559) MIC [3] | (G) MRSA (ATCC33591) MIC [1] |
| --- | --- | --- | --- | --- | --- | --- | --- | --- | --- | --- | --- | --- | --- | --- |
| O=c1n(Cc2nc3nc(Cl)ccc3[nH]2)cc(Cc2ccc(Cl)cc2Cl)n1CC1(O)CC1 [Compound 2225, 1-({5-chloro-1H-imidazo[4,5-b]pyridin-2-yl}methyl)-4-[(2,4-dichlorophenyl)-methyl]-3-[(1-hydroxycyclopropyl)methyl]-2,3-dihydro-1H-imidazol-2-one] |  | > 2.5 µg/mL |  | 49.2 nM | 14.5 nM | 245 nM | 1840 nM | 3.02 µg/mL | 1.52 µg/mL (≈ 3.17 µM) | 26.9 nM |  |  |  |  |
| COc1ccc(Cc2cn(Cc3nc4c(C)c(Cl)ccc4[nH]3)c(=O)n2CC(C)(C)O)c(Cl)c1 [Compound 2248, 4-[(2-chloro-4-methoxyphenyl)methyl]-1-[(5-chloro-4-methyl-1H-1,3-benzodiazol-2-yl)methyl]-3-(2-hydroxy-2-methylpropyl)-2,3-dihydro-1H-imidazol-2-one] |  |  |  | 40.8 nM | 81.8 nM | 491 nM | > 2000 nM |  | 1.98 µg/mL (≈ 4.05 µM) |  |  |  | 2.23 µg/mL |  |
| COc1ccc(-c2nccc3nc(Cc4nc5ccc(Cl)nc5[nH]4)cn23)c(Cl)c1 [Compound 2256, 2-({5-chloro-1H-imidazo[4,5-b]pyridin-2-yl}methyl)-5-(2-chloro-4-methoxyphenyl)imidazo[1,2-c]pyrimidine] | > 2 µg/mL |  |  |  | 12.3 nM | 76.5 nM | 1940 nM |  |  | 20.3 nM | 77.2 nM |  |  | 1.59 µg/mL |
| COc1ccc(-c2cccc3c2CN(Cc2nc4nc(C)nc(N)c4[nH]2)C3=O)c(Cl)c1 [Compound 2251, 2-((6-amin0-2-methyl-7H-purin-8-yl)methyl)-4-(2-chloro-4-methoxyphenyl)isoindolin-1-one] |  |  |  | < 40 nM | 166 nM | 811 nM | > 2000 nM |  | > 4 µg/mL |  |  |  |  |  |
| COc1ccc(-c2cccc3nn(Cc4nc5nc(Cl)ccc5[nH]4)cc23)c(Cl)c1 [Compound 2245, 2-({5-chloro-1H-imidazo[4,5-b]pyridin-2-yl}methyl)-4-(2-chloro-4-methoxyphenyl)-2H-indazole] | 0.0378 µg/mL (≈ 0.0891 µM) | 0.0924 µg/mL (≈ 0.218 µM) |  | < 40 nM | 25.4 nM |  | > 2000 nM | 0.0526, μg/ml and 0.0902 μg/ml |  | 17.3 nM |  |  |  |  |
| CCn1c(Cc2ccc(Cl)cc2Cl)cn(Cc2cc3nc(F)ccc3[nH]2)c1=O [Compound 2112, 5-(2,4-dichlorobenzyl)-1-ethyl-3-((5-fluoro-1H-pyrrolo[3,2-b]pyridin-2-yl)methyl)-1H-imidazol-2(3H)-one] | 0.405 µg/mL (≈ 0.966 µM) | 0.254 µg/mL (≈ 0.606 µM) | < 40 nM | < 40 nM | 9.56 nM | 176 nM | 620 nM |  |  |  |  |  |  |  |

Continued, values first:

| MIC [1] | MIC [2] | IC50 (MetRS (T. brucei)) | IC50 (MetRS (C. parvum)) | EC50 (T. brucei; Trypanosoma brucei) | EC50 (T. cruzi; Trypanosoma cruzi) | EC50 (C. parvum; Cryptosporidium parvum) | (F) S. aureus (ATCC 29213) MIC [2] | MIC [3] | EC50 (T. brucei) | EC50 (T. cruzi) | EC50 (C. parvum) | (I) E. faecium (ATCC 51559) MIC [3] | (G) MRSA (ATCC33591) MIC [1] | SMILES |
| --- | --- | --- | --- | --- | --- | --- | --- | --- | --- | --- | --- | --- | --- | --- |
| > 2 µg/mL | > 2 µg/mL | < 40 nM | < 40 nM | 267 nM | 3880 nM | > 2000 nM |  |  |  |  |  |  |  | COc1ccc(-c2cccc3c2CN(Cc2nc4c(N)ncnc4[nH]2)C3=O)c(Cl)c1 [Compound 2239, 2-((6-amino-9H-purin-8-yl)methyl)-4-(2-chloro-4-methoxyphenyl)isoindolin-1-one] |
|  | > 2.5 µg/mL | < 40 nM | 59.3 nM | 11.6 nM | 2600 nM | > 2000 nM | 3.12, μg/ml and 3.27 μg/ml | 0.691 µg/mL (≈ 1.39 µM) |  |  |  |  |  | COC(=O)Cn1c(C(O)c2ccc(Cl)cc2Cl)cn(Cc2nc3ccc(Cl)nc3[nH]2)c1=O (stereo not shown) [Compound 2217, methyl 2-(3-((5-chloro-3H-imidazo[4,5-b]pyridin-2-yl)methyl)-5-((2,4-dichlorophenyl)(hydroxy)methyl)-2-oxo-2,3-dihydro-1H-imidazol-1-yl)acetate] |
| 0.115 µg/mL (≈ 0.253 µM) | 0.277 µg/mL (≈ 0.608 µM) |  | 55.6 nM | 6.68 nM | 17.9 nM | 359 nM | 0.497 µg/mL |  | 5.68 nM | 20.6 nM | 300 nM |  |  | COc1cc(Cl)c(-c2nccc3nc(Cc4nc5nc(Cl)ccc5[nH]4)cn23)cc1OC [Compound 2246, 2-({5-chloro-1H-imidazo[4,5-b]pyridin-2-yl}methyl)-5-(2-chloro-4,5-dimethoxyphenyl)imidazo[1,2-c]pyrimidine] |
| 0.822 µg/mL (≈ 1.66 µM) |  | < 40 nM | 52.9 nM | 61.1 nM | 538 nM |  |  | 0.694 µg/mL (≈ 1.4 µM) |  |  |  |  |  | COC(=O)Nc1ccc(-c2ccc(OC)cc2Cl)n2cc(Cc3nc4ccc(Cl)cc4[nH]3)nc12 [Compound 2181, methyl N-{2-[(6-chloro-1H-1,3-benzodiazol-2-yl)methyl]-5-(2-chloro-4-methoxyphenyl)imidazo[1,2-a]pyridin-8-yl}carbamate] |
|  | 0.0609 µg/mL (≈ 0.141 µM) | < 40 nM | < 40 nM |  | 133 nM | > 2000 nM | 0.0371 µg/mL | 0.0246 µg/mL (≈ 0.0569 µM) |  |  |  |  |  | O=c1n(Cc2nc3ccc(F)nc3[nH]2)cc(Cc2ccc(Cl)cc2Cl)n1C1CC1 [Compound 2070, 3-cyclopropyl-4-[(2,4-dichlorophenyl)methyl]-1-({5-fluoro-1H-imidazo[4,5-b]pyridin-2-yl}methyl)-2,3-dihydro-1H-imidazol-2-one] |
| 1.82 µg/mL (≈ 3.72 µM) | 1.82 µg/mL (≈ 3.72 µM) |  | 277 nM | 71.5 nM | 165 nM | > 2000 nM | 2.93 µg/mL |  |  |  |  |  |  | COc1cc(Cl)c(-c2nccc3nc(Cc4nc5c(Cl)c(Cl)ccc5[nH]4)cn23)cc1OC [Compound 2255, 6,7-dichlor0-2-{[5-(2-chloro-4,5-dimethoxyphenyl)imidazo[1,2-c]pyrimidin-2-yl]methyl}-1H-1,3-benzodiazole] |
|  |  |  |  | 28.9 nM |  |  |  | 1.35 µg/mL (≈ 2.95 µM) |  |  |  | 1.01 µg/mL |  | COc1ccc(-c2nccn3c(=S)n(Cc4nc5nc(Cl)ccc5[nH]4)cc23)c(Cl)c1 [Compound 2250, 2-({5-chloro-1H-imidazo[4,5-b]pyridin-2-yl}methyl)-8-(2-chloro-4-methoxyphenyl)-2H,3H-imidazo[1,5-a]pyrazine-3-thione] |
|  | 1.72 µg/mL (≈ 3.58 µM) | < 40 nM | 45.7 nM | 3.03 nM | 236 nM | > 2000 nM | 1.33, μg/ml and 1.65 μg/ml | 0.512 µg/mL (≈ 1.07 µM) |  |  |  | 0.426 µg/mL |  | CC(C)(N)Cn1c(Cc2ccc(Cl)cc2Cl)cn(Cc2nc3nc(Cl)ccc3[nH]2)c1=O [Compound 2212, 5-(2,4-dichlorobenzyl)-1-(2-amin0-2-methylpropyl)-3-((5-chloro-1H-imidazo[4,5-b]pyridin-2-yl)methyl)-1H-imidazol-2(3H)-one] |
